Assay results from patent US8809314B1, “Cephalosporin compound” (Cubist Pharmaceuticals, Inc., priority 2012, dated 2014).
Values after ≈ are worked out from the molar mass of the structure shown.

Legend:
[1] = system: Klebsiella pneumoniae #573; assay: Mouse septicemia (systemic infection), PD50; type: in vivo; details: Kpn #573; CD-1 mice, IP inoculum, 2 SC doses at 1 and 6 hrs, 7 day survival
Description: (§1) In vivo efficacy of (I) was evaluated against strains of MRSA, and ceftazidime-resistant Pa and Klebsiella pneumonia (Kpn) in mouse septicemia, thigh and lung infections. Septicemia: CD-1 mice received lethal bacterial inocula IP, followed by 2 doses of antibiotics SC at 1 and 6 hrs post-inoculation. Dose calculated to protect 50% of the mice (PD50) was derived based on probit analysis of percentage survival. Thigh and lung infections: Thighs or lungs of neutropenic mice were inoculated with MRSA or Pa. Two treatment doses were given SC at 1 and 6 hrs post-inoculation. Tissues were harvested at ˜24 hrs post-inoculation and bacterial burdens quantified.
(§2) II. Methods • A. Animals: Six week-old, specific pathogen free, female CD-1 mice purchased from Charles River Laboratories (Wilmington, Mass.) were used for all studies after acclimation in Cubist animal facility. […] MIC was determined in MHB by standard CLSI microdilution. […] The survival of animals was recorded daily for 7 days. The antibiotic dose calculated to protect 50% of the mice (PD50) was derived based on probit analysis of percentage survival. • E. Mouse Thigh and Lung Infections: Mice were rendered neutropenic by two IP injections of cyclophosphamide 4 days (150 mg/kg) and 1 day (100 mg/kg) before bacterial inoculation. […] Tissue bacterial burdens were quantified by serial dilution and spiral plating of homogenates.

MRSA #712 [2] = assay: Mouse septicemia (systemic infection), PD50; type: in vivo, Staphylococcus aureus; details: CD-1 mice, IP inoculum, 2 SC doses at 1 and 6 hrs, 7 day survival
Description: as §1
as §2, with “II.” for “II. Methods • A. Animals: Six week-old, specific pathogen free, female CD-1 mice purchased from Charles River Laboratories (Wilmington, Mass.) were used for all studies after acclimation in Cubist animal facility.”
(§3) III. […] The dose that protected 50% of the mice (PD50) was calculated by probit analysis based on percentage of mice surviving for 7 days post-inoculation. • C. […]

Pseudomonas aeruginosa = assay: MIC measured by the method of Example 3; type: cell-based; details: strain not named, read-out: MIC against Pseudomonas aeruginosa
Description: To prepare for MIC testing, individual colonies were isolated by streaking frozen glycerol material containing Staphylococcus or Pseudomonas spp. onto rich, non-selective, tryptic soy agar containing 5% sheep's blood (TSAB), and incubated at 37° C. for 18-24 hrs.
On the day of testing, primary cultures were started by scraping off 5-10 colonies from the TSAB plates. The material was suspended in ˜5 mL of cation adjusted Mueller Hinton Broth (CAMHB) in 14 mL culture tubes and incubated at 37° C. with aeration (200 rpm) for ˜2 hrs until the OD600 was ≧0.1.
Inoculum cultures were prepared by standardizing the primary cultures to OD600=0.1 and then adding 20 μL of the adjusted primary culture per 1 mL CAMHB for Pseudomonas and CAMHB plus 4% NaCl for MRSA so that the final inoculum density was ˜10^5 colony forming units per milliliter. Diluted inoculum cultures were used to inoculate 50 μL per well in 96 well broth microdilution assay plates. […]
Plates were incubated for 18-20 hours at 37° C. with aeration (200 rpm). Following incubation, growth was confirmed visually placing plates over a viewing apparatus (stand with a mirror underneath) and then OD600 was measured using a SpectraMax 340PC384 plate reader (Molecular Devices, Sunnyvale, Calif.). Growth was defined as turbidity that could be detected with the naked eye or achieving minimum OD600 of 0.1. […]

[3] = system: Pseudomonas aeruginosa #44 (ATCC#27853); assay: Mouse septicemia (systemic infection), PD50; type: in vivo; details: Pa #44 (ATCC27853); CD-1 mice, IP inoculum, 2 SC doses at 1 and 6 hrs, 7 day survival
Description: as §1
II. Methods • A. Animals: Six week-old, specific pathogen free, female CD-1 mice purchased from Charles River Laboratories (Wilmington, Mass.) were used for all studies after acclimation in Cubist animal facility. All animal procedures were approved by the Cubist Institutional Animal Care and Use Committee. • B. Bacteria and In Vitro Susceptibility Testing: MRSA #712, Pseudomonas aeruginosa #2245 and #2545, and Klebsiella pneumoniae #573 are clinical isolates; Pseudomonas aeruginosa #44 is an ATCC strain (ATCC#27853). MIC was determined in MHB by standard CLSI microdilution. […] The survival of animals was recorded daily for 7 days. The antibiotic dose calculated to protect 50% of the mice (PD50) was derived based on probit analysis of percentage survival. • E. Mouse Thigh and Lung Infections: Mice were rendered neutropenic by two IP injections of cyclophosphamide 4 days (150 mg/kg) and 1 day (100 mg/kg) before bacterial inoculation. […] Tissue bacterial burdens were quantified by serial dilution and spiral plating of homogenates.
as §3

MRSA (n = 21) = assay: MIC90, expanded MIC panel (Table 4); type: cell-based; details: Staphylococcus aureus; 21 MRSA strains; read-out: MIC90 MRSA (n = 21)
Description: (§4) II. […] MIC90 values were defined as the concentration required to inhibit growth of 90% of the strains tested. • C. SAR was performed using the following isolates: Sa399 (ATCC43300, MRSA), Sa1721 (NARSA NRS384, MRSA USA 300), Pa44 (ATCC27853), and 4 clinical isolates (Pa2241, Pa2086 (mucoid strain), Pa2694 and Pa2698). • D. The in vitro antibacterial activity of the compound of formula (I) was further evaluated in an expanded MRSA and Pa MIC panel (see Table 4 and FIG. 6).

[4] = system: Pseudomonas aeruginosa (n = 100); assay: MIC90, expanded MIC panel (Table 4); type: cell-based; details: 100 Pa strains
Description: as §4

Kpn #573 = assay: MIC in MHB by standard CLSI microdilution (Example 4); type: cell-based; details: Klebsiella pneumoniae; Kpn #573; read-out: MIC
Description: (§5) II. Methods • A. Animals: Six week-old, specific pathogen free, female CD-1 mice purchased from Charles River Laboratories (Wilmington, Mass.) were used for all studies after acclimation in Cubist animal facility. All animal procedures were approved by the Cubist Institutional Animal Care and Use Committee. • B. Bacteria and In Vitro Susceptibility Testing: MRSA #712, Pseudomonas aeruginosa #2245 and #2545, and Klebsiella pneumoniae #573 are clinical isolates; Pseudomonas aeruginosa #44 is an ATCC strain (ATCC#27853). MIC was determined in MHB by standard CLSI microdilution. Comparator Antibiotics Used in Animal Studies: Vancomycin hydrochloride USP was purchased from Hospira (Lake Forest, Ill.); ceftazidime hydrate from Sigma; Primaxin (imipenem and cilastatin) from Merck; ceftaroline was synthesized at a CRO. • D. Mouse Septicemia: Mice received lethal inocula of bacteria in 6% hog gastric mucin intraperitoneally (IP), followed by two treatment doses of antibiotics via subcutaneous (SC) administration at 1 and 6 hrs post-inoculation. The survival of animals was recorded daily for 7 days. The antibiotic dose calculated to protect 50% of the mice (PD50) was derived based on probit analysis of percentage survival. • E. Mouse Thigh and Lung Infections: Mice were rendered neutropenic by two IP injections of cyclophosphamide 4 days (150 mg/kg) and 1 day (100 mg/kg) before bacterial inoculation. Thigh or lung infection was induced by an intramuscular injection of 0.2 mL or intranasal inoculation of 0.1 mL inoculum preparation from an overnight bacterial culture into left thigh or nares. Tissues from one group of mice receiving no treatment (No Rx) were harvested at 1 hr for determination of baseline of bacterial burden. The remaining mice received two treatment doses of vehicles or antibiotics given SC at 1 and 6 hrs post-inoculation. Tissues from the treated mice were harvested at ˜24 hrs post-inoculation. Tissue bacterial burdens were quantified by serial dilution and spiral plating of homogenates.

MRSA #712 [5] = assay: as above; type: cell-based; details: Staphylococcus aureus; MRSA #712; read-out: MIC
Description: as §5

Pa #2545 = assay: as above; type: cell-based; details: Pseudomonas aeruginosa
Description: as §5

Pa #44 (ATCC27853) = assay: as above; type: cell-based; details: Pseudomonas aeruginosa
Description: as §5

CO/N=C(\C(=O)N[C@@H]1C(=O)N2C(C(=O)[O-])=C(C[n+]3ccc(N)c(NC(=O)Nc4ccc(CCNC(=N)N)cc4)c3)CS[C@H]12)c1nc(N)sc1Cl [(I)]
Septicemia PD50 (± SE) [1]: <1.3 mg/kg | Septicemia PD50 (± SE) (MRSA #712 [2]): 2.0 ± 0.3 mg/kg | MIC (Pseudomonas aeruginosa): 1 to 2 µg/mL (≈ 1.35 to 2.69 µM) | Septicemia PD50 (± SE) [3]: 5.3 ± 0.7 mg/kg | MIC90 (MRSA (n = 21)): 2 µg/mL (≈ 2.69 µM) | MIC90 [4]: 8 µg/mL (≈ 10.8 µM) | MIC (Kpn #573): 1 µg/mL (≈ 1.35 µM) | MIC (MRSA #712 [5]): 2 µg/mL (≈ 2.69 µM) | MIC (Pa #2545): 2 µg/mL (≈ 2.69 µM) | MIC (Pa #44 (ATCC27853)): 1 µg/mL (≈ 1.35 µM)
